Data taken from patent publication US10005767B2, “Compositions and methods for inhibition of the JAK pathway” (Rigel Pharmaceuticals, Inc., priority 2009, dated 2018).
Counter-ions that a name gives are not always drawn. Like-named read-outs stand apart in the source and are kept apart here.

System: human primary T-cells, IL-2 stimulated proliferation (JAK-1 and JAK-3 dependent; reported as JAK3 activity)
Test: Human primary T-cell proliferation stimulated by IL-2 (Example 3)
Format: cell-based
Settings: tested under conditions described in Example 3 (IL-2 stimulated human primary T-cell proliferation), read-out: ability to inhibit JAK3 activity, IC50 range (Table V)
Procedure, shortened: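 Peripheral-blood human T-cells pre-activated via TCR/CD28, IL-2-starved overnight, then cultured 72 h at 37 °C with compound in Yssel's medium containing IL-2 (80 U/mL in cell suspension). Proliferation read as viable-cell ATP by CellTiter-Glo luminescence; reduction versus control taken as JAK pathway inhibition.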

Compound | IC50 (Homo sapiens, T-cell) | IC50
Cc1cnc(Nc2cnc(N3CCN(C)CC3)c(C)c2)nc1Nc1ccc2oc(=O)[nH]c2c1 [II-26, N4-(benzoxazolin-2-on-5-yl)-N2-[3-methyl-2-(4-methylpiperazin-1-yl)pyridin-5-yl]-5-methylpyrimidine-2,4-diamine] | < 500 nM | 
Cc1cnc(Nc2cccc(C)c2C)nc1Nc1ccc2oc(=O)[nH]c2c1 [Compound I-500, 5-(2-(2,3-dimethylphenylamino)-5-methylpyrimidin-4-ylamino)benzo[d]oxazol-2(3H)-one] | 500 to 5000 nM | 
Cc1cnc(Nc2ccc(OC(F)(F)F)c(N3CCOCC3)c2)nc1Nc1ccc2oc(=O)[nH]c2c1 [Compound I-124, N4-(benzo[d]oxazolin-2(3H)-one-5-yl)-5-methyl-N2-[3-(morpholin-4-yl)-4-trifluoromethoxyphenyl]-2,4-pyrimidinediamine] | < 500 nM | 
Cc1cnc(Nc2cc(C(N)=O)cc(C(F)(F)F)c2)nc1Nc1ccc2oc(=O)[nH]c2c1 [Compound I-370, N2-(3-carboxamide-5-trifluoromethyl)phenyl-5-methyl-N4-(2-oxo-2,3-dihydro-1,3-benzoxazol-5-yl)-2,4-pyrimidinediamine] |  | < 500 nM
COc1cc(Nc2ncc(C)c(Nc3ccc4oc(=O)[nH]c4c3)n2)ccc1C(=O)N1CCN(C)CC1 [Compound I-270, 5-(2-(3-methoxy-4-(4-methylpiperazine-1-carbonyl)phenylamino)-5-methylpyrimidin-4-ylamino)benzo[d]oxazol-2(3H)-one] | < 500 nM | 
Cc1cnc(Nc2ccc3c(c2)C(=O)N(C)C/C=C\C3)nc1Nc1ccc2oc(=O)[nH]c2c1 [IV-10, (Z)-2-Methyl-9-[5-methyl-4-(2-oxo-2,3-dihydro-benzooxazol-5-ylamino)-pyrimidin-2-ylamino]-3,6-dihydro-2H-benzo[c]azocin-1-one] | < 500 nM | 
Cc1cnc(Nc2ccc(N3CCC(C)CC3)nc2)nc1Nc1ccc2oc(=O)[nH]c2c1 [II-6, N4-(benzo[d]oxazol-2(3H)-on-5-yl)-N2-(6-(4-methylpiperidin-1-yl)pyridin-3-yl)-5-methylpyrimidine-2,4-diamine] | > 10000 nM | 
Cc1cnc(Nc2ccc(S(C)(=O)=O)cc2)nc1Nc1ccc2oc(=O)n(C)c2c1 [Compound I-70, N2-((4-methylsulfonyl)phenyl)-N4-(3-methyl-2-oxo-2,3-dihydrobenzo[d]oxazol-5-yl)-5-methylpyrimidine-2,4-diamine] |  | < 500 nM
Cc1cnc(Nc2cc(Cl)c(OC(F)F)c(Cl)c2)nc1Nc1ccc2oc(=O)[nH]c2c1 [Compound I-348, N2-(3,5-dichloro-4-difluoromethoxy)phenyl-5-methyl-N4-(2-oxo-2,3-dihydro-1,3-benzoxazol-5-yl)-2,4-pyrimidinediamine] |  | < 500 nM
COc1cc(Nc2ncc(C)c(Nc3ccc4oc(=O)[nH]c4c3)n2)ccc1C(=O)N1CCOCC1 [Compound I-269, 5-(2-(3-methoxy-4-(morpholine-4-carbonyl)phenylamino)-5-methylpyrimidin-4-ylamino)benzo[d]oxazol-2(3H)-one] | < 500 nM | 
COc1cc(Nc2ncc(C)c(Nc3ccc4oc(=O)[nH]c4c3)n2)ccc1-c1cccnc1 [Compound I-506, 5-(2-(3-methoxy-4-(pyridin-3-yl)phenylamino)-5-methylpyrimidin-4-ylamino)benzo[d]oxazol-2(3H)-one formate salt] | < 500 nM | 
COc1ccc(Nc2ncc(C)c(Nc3ccc4oc(=O)[nH]c4c3)n2)cc1COC(C)C [Compound I-422, 5-(2-(3-(isopropoxymethyl)-4-methoxyphenylamino)-5-methylpyrimidin-4-ylamino)benzo[d]oxazol-2(3H)-one] | < 500 nM | 
COc1cc(Nc2ncc(C)c(Nc3cc(C)c4oc(=O)[nH]c4c3)n2)cc(C)c1F [Compound I-491, 5-(2-(4-fluoro-3-methoxy-5-methylphenylamino)-5-methylpyrimidin-4-ylamino)-7-methylbenzo[d]oxazol-2(3H)-one] | < 500 nM | 
Cc1cnc(Nc2cc(C)c(C)c(F)c2)nc1Nc1ccc2oc(=O)[nH]c2c1 [Compound I-537, N2-(3,4-dimethyl-5-fluoro)phenyl-5-methyl-N4-(2-oxo-2,3-dihydro-1,3-benzoxazol-5-yl)-2,4-pyrimidinediamine] |  | < 500 nM
Cc1cnc(Nc2ccc(N3CCC(NC(=O)C4CC4)C3)nc2)nc1Nc1ccc2oc(=O)[nH]c2c1 (centres unmarked) [II-101, N-(1-(5-(5-methyl-4-(2-oxo-2,3-dihydrobenzo[d]oxazol-5-ylamino)pyrimidin-2-ylamino)pyridin-2-yl)pyrrolidin-3-yl)cyclopropanecarboxamide] | < 500 nM | 
CC(=O)N1CCN(c2cccc(Nc3ncc(C)c(Nc4ccc5oc(=O)[nH]c5c4)n3)c2)CC1 [Compound I-345, N2-[3-(4-acetyl)piperazino]phenyl-5-methyl-N4-(2-oxo-2,3-dihydro-1,3-benzoxazol-5-yl)-2,4-pyrimidinediamine] |  | < 500 nM

Compound | IC50 (Homo sapiens, T-cell) | IC50
Cc1cnc(Nc2ccc(N3CCN(C)CC3)nc2)nc1Nc1ccc2c(c1)n(C)c(=O)n2C [II-20, N4-(1,3-dimethylbenzimidazolin-2-on-5-yl)-N2-[2-(4-methylpiperazino)pyridin-5-yl]-5-methylpyrimidine-2,4-diamine] |  | < 500 nM
Cc1cnc(Nc2cc(F)cc(OC(F)F)c2)nc1Nc1ccc2oc(=O)[nH]c2c1 [Compound I-401, N2-(3-difluoromethoxy-5-fluoro)phenyl-5-methyl-N4-(2-oxo-2,3-dihydro-1,3-benzoxazol-5-yl)-2,4-pyrimidinediamine] |  | < 500 nM
Cc1cnc(Nc2ccc(N3CCC(NC(=O)OC(C)(C)C)C3)nc2)nc1Nc1ccc2oc(=O)[nH]c2c1 (centres unmarked) [II-86, tert-butyl 1-(5-(5-methyl-4-(2-oxo-2,3-dihydrobenzo[d]oxazol-5-ylamino)pyrimidin-2-ylamino)pyridin-2-yl)pyrrolidin-3-ylcarbamate] | < 500 nM | 
CCCC(NC)c1cc(Nc2ncc(C)c(Nc3ccc4oc(=O)[nH]c4c3)n2)cc(C(F)(F)F)c1 (centres unmarked) [Compound I-460, 5-(5-methyl-2-(3-(1-(methylamino)butyl)-5-(trifluoromethyl)phenylamino)pyrimidin-4-ylamino)benzo[d]oxazol-2(3H)-one] | < 500 nM | 
Cc1cnc(Nc2ccc(OC(F)F)c(CF)c2)nc1Nc1ccc2oc(=O)[nH]c2c1 [Compound I-433, 5-(2-(4-(difluoromethoxy)-3-(fluoromethyl)phenylamino)-5-methylpyrimidin-4-ylamino)benzo[d]oxazol-2(3H)-one formate salt] | < 500 nM | 
Cc1cnc(Nc2cc(C)c(F)c(C)c2)nc1Nc1ccc2oc(=O)n(COP(=O)(O)O)c2c1 [Compound I-451, N2-(3,5-dimethyl-4-fluoro)phenyl-5-methyl-N4-[3-(phosphonooxy)methyl-2-oxo-2,3-dihydro-1,3-benzoxazol-5-yl]-2,4-pyrimidinediamine bis-sodium salt] |  | 500 to 5000 nM
Cc1cc(CF)cc(Nc2ncc(C)c(Nc3ccc4oc(=O)[nH]c4c3)n2)c1 [Compound I-238, 5-(2-(3-(fluoromethyl)-5-methylphenylamino)-5-methylpyrimidin-4-ylamino)benzo[d]oxazol-2(3H)-one] | < 500 nM | 
Cc1cnc(Nc2cc(Cl)cc(OC(F)(F)F)c2)nc1Nc1ccc2oc(=O)[nH]c2c1 [Compound I-378, N2-(3-chloro-5-trifluoromethoxy)phenyl-5-methyl-N4-(2-oxo-2,3-dihydro-1,3-benzoxazol-5-yl)-2,4-pyrimidinediamine] |  | < 500 nM
Cc1cnc(Nc2cc(OC(C)C)cc(C(F)(F)F)c2)nc1Nc1ccc2oc(=O)[nH]c2c1 [Compound I-372, N2-(3-isopropoxy-5-trifluoromethyl)phenyl-5-methyl-N4-(2-oxo-2,3-dihydro-1,3-benzoxazol-5-yl)-2,4-pyrimidinediamine] |  | < 500 nM
Cc1cnc(Nc2cccc(S(N)(=O)=O)c2)nc1Nc1ccc2c(c1)n(C)c(=O)n2C [Compound I-34, N4-(1,3-dimethylbenzimidazolin-2-on-5-yl)-N2-((3-aminosulfonyl)phenyl)-5-methylpyrimidine-2,4-diamine] |  | < 500 nM
Cc1ccc(Nc2ncc(F)c(Nc3ccc4c(c3)oc(=O)n4C)n2)cc1NS(C)(=O)=O [Compound I-86, N2-((3-methylsulfonylamino-4-methyl)phenyl)-N4-(3-methyl-2-oxo-2,3-dihydrobenzo[d]oxazol-6-yl)-5-fluoropyrimidine-2,4-diamine] |  | > 10000 nM
Cc1cc(Nc2ncc(C)c(Nc3ccc4oc(=O)[nH]c4c3)n2)ccc1-c1cccnc1 [Compound I-483, 5-(5-methyl-2-(3-methyl-4-(pyridin-3-yl)phenylamino)pyrimidin-4-ylamino)benzo[d]oxazol-2(3H)-one formate salt] | < 500 nM | 
Cc1cc(Nc2ncc(C)c(Nc3ccc4oc(=O)[nH]c4c3)n2)ccc1-c1ccncc1 [Compound I-482, 5-(5-methyl-2-(3-methyl-4-(pyridin-4-yl)phenylamino)pyrimidin-4-ylamino)benzo[d]oxazol-2(3H)-one formate salt] | < 500 nM | 
Cc1cc(F)cc(Nc2ncc(C)c(Nc3ccc4oc(=O)[nH]c4c3)n2)c1 [Compound I-199, 5-[2-(3-Fluoro-5-methyl-phenylamino)-5-methyl-pyrimidin-4-ylamino]-3H-benzooxazol-2-one] | < 500 nM | 
Cc1cnc(Nc2cc(OC(F)F)cc(C(F)(F)F)c2)nc1Nc1ccc2oc(=O)[nH]c2c1 [Compound I-353, N2-(3-difluoromethoxy-5-trifluoromethyl)phenyl-5-methyl-N4-(2-oxo-2,3-dihydro-1,3-benzoxazol-5-yl)-2,4-pyrimidinediamine] |  | < 500 nM
Cc1cnc(Nc2ccc(OC(C)(C)C(N)=O)cc2)nc1Nc1ccc2oc(=O)[nH]c2c1 [Compound I-324, N2-[4-(1-aminocarbonyl-1-methyl)ethoxy]phenyl-5-methyl-N4-(2-oxo-2,3-dihydro-1,3-benzoxazol-5-yl)-2,4-pyrimidinediamine] |  | < 500 nM
